Experimental findings from ChEMBL document CHEMBL1909629, “Discovery of novel 3,5-disubstituted indole derivatives as potent inhibitors of Pim-1, Pim-2, and Pim-3 protein kinases” (Bioorg Med Chem Lett, 2011) are described below.

In experiment [1] the target is Serine/threonine-protein kinase pim-3 (Homo sapiens, UniProt Q86V86). In words: Inhibition of PIM3 using BAD peptide as substrate preincubated for 15 mins measured after 60 to 100 mins by luminescence assay.
The target of experiment [2] is Serine/threonine-protein kinase pim-1 (Homo sapiens, UniProt P11309). Briefly: Inhibition of PIM1 using BAD peptide as substrate preincubated for 15 mins measured after 60 to 100 mins by luminescence assay.
Sequence of Serine/threonine-protein kinase pim-1 (P11309 whole entry): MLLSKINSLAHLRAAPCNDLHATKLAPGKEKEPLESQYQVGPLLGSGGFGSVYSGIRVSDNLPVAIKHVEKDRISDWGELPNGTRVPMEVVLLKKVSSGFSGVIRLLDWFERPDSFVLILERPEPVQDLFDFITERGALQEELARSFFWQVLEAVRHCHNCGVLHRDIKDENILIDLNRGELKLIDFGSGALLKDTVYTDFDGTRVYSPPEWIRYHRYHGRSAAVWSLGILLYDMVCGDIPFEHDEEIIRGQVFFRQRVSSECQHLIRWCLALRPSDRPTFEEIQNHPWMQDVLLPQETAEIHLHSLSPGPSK
Experiment [3] deals with Serine/threonine-protein kinase pim-2 (Homo sapiens, UniProt Q9P1W9). Briefly: Inhibition of PIM2 using BAD peptide as substrate preincubated for 15 mins measured after 60 to 100 mins by luminescence assay.
Sequence of Serine/threonine-protein kinase pim-2 (Q9P1W9 whole entry): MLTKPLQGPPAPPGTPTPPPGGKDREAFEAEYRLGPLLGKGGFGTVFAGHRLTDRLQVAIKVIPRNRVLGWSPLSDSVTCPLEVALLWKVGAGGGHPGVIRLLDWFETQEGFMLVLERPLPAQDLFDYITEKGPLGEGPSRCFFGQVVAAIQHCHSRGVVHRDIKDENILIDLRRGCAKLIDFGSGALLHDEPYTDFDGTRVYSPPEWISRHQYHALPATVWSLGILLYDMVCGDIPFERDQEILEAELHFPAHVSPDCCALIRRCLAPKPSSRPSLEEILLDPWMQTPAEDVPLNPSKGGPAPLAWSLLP
Experiment [4] has as its target Vascular endothelial growth factor receptor 2 (Homo sapiens, UniProt P35968). In words: Inhibition of KDR.
For experiment [5], the target named is Mast/stem cell growth factor receptor Kit (Homo sapiens, UniProt P10721). In words: Inhibition of cKIT.
Sequence of Mast/stem cell growth factor receptor Kit (P10721 whole entry): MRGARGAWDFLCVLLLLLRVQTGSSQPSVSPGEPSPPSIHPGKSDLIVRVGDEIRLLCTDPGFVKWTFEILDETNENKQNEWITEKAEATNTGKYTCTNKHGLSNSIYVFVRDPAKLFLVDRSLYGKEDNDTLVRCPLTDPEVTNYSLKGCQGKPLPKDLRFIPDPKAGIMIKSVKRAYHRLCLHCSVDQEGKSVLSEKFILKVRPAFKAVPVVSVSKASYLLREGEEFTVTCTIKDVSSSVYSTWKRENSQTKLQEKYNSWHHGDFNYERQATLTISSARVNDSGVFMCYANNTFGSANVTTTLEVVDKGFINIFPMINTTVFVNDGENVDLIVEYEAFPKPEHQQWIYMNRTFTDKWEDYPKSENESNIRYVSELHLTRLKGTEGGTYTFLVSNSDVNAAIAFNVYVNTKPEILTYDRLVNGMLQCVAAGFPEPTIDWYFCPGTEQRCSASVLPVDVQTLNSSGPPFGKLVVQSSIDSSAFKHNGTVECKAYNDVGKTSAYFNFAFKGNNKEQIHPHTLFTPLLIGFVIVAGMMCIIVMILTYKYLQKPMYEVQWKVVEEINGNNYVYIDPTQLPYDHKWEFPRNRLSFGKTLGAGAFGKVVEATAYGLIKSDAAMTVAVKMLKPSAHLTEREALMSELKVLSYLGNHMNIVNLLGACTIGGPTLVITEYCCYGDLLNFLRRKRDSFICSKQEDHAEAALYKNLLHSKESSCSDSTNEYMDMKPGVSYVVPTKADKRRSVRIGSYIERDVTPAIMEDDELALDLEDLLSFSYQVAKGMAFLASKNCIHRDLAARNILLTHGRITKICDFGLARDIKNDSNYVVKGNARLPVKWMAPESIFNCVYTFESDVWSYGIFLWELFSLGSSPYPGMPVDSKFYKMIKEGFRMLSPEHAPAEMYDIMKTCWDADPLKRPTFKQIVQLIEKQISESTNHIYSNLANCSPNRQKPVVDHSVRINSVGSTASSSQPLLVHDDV
Experiment [6] concerns the target T1, Receptor-type tyrosine-protein kinase FLT3 (Homo sapiens, UniProt P36888).
T1 sequence (P36888 whole entry): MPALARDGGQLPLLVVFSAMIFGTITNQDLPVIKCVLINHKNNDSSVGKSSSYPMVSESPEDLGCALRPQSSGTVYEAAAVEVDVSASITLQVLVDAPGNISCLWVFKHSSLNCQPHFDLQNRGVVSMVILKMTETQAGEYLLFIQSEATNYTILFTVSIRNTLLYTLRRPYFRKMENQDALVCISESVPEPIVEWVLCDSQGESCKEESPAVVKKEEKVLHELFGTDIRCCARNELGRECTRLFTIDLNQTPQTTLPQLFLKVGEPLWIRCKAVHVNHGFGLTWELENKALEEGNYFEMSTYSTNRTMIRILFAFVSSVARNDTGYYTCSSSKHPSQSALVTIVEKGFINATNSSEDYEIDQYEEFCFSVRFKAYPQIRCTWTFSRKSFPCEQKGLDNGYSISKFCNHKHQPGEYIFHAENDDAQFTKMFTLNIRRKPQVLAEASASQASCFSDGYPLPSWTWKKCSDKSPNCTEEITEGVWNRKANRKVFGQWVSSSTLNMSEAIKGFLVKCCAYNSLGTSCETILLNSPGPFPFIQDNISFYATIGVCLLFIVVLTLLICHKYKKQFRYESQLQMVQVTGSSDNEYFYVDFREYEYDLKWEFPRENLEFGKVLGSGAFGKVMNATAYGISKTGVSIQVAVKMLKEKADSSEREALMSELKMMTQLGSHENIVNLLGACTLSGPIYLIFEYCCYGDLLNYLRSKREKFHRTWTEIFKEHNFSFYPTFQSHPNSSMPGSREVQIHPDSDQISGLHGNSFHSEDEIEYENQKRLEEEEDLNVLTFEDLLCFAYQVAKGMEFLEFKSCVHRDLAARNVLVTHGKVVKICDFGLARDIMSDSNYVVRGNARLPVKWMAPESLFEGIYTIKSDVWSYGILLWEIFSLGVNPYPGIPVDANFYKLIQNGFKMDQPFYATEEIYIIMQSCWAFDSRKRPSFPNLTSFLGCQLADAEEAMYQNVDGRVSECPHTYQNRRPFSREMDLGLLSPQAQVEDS
In words: Inhibition of FLT3.

Experiment [7] can be described thus: Inhibition of PDGFR.

As a reminder, the IC50 is the concentration at which inhibition is half-maximal. Read a low IC50 as greater potency in that assay.

Where only a bound is given, the exact number is not on record here.

Sequence of Vascular endothelial growth factor receptor 2 (P35968 whole entry): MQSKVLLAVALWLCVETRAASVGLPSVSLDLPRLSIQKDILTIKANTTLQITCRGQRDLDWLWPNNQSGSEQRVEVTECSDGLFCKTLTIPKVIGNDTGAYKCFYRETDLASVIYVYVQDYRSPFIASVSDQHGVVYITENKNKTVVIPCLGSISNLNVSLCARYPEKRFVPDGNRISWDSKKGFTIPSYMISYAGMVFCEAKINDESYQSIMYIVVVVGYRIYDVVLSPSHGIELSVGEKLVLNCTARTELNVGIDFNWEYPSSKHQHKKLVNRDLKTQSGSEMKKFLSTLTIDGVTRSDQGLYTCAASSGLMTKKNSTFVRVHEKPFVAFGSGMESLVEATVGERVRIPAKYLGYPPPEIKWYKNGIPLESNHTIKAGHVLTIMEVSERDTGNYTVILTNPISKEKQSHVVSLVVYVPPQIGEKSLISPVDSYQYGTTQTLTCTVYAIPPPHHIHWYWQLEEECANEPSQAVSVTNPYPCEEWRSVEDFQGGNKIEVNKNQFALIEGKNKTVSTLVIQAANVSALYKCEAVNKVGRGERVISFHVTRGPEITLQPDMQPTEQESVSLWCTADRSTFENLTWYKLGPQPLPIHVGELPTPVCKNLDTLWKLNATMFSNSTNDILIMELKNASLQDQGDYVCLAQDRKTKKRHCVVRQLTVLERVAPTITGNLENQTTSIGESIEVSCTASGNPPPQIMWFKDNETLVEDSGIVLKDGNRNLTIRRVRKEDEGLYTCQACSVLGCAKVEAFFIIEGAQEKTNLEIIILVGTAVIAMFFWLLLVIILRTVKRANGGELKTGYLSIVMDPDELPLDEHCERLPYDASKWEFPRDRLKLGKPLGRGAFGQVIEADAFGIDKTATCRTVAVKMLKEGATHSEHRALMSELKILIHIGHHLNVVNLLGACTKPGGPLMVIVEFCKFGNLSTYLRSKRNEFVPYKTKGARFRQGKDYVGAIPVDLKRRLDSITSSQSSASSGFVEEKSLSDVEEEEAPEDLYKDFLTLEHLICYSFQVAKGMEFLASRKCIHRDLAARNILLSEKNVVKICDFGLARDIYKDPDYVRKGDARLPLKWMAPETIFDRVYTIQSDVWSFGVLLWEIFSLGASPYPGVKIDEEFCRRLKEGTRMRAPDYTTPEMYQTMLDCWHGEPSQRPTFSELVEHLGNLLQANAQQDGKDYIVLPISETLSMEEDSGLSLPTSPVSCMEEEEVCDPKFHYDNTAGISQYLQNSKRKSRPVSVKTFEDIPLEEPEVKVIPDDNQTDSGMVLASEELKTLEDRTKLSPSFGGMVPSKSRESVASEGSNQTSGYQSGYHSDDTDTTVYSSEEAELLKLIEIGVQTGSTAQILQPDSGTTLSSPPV

With `c1ncc(-c2ccc3[nH]cc(-c4ccc(N5CCNCC5)cc4)c3c2)cn1`, the IC50 was 3.3 µM in experiment [1], 2.6 µM in experiment [2] and over 25 µM in experiment [3].
Take `Oc1ccc(-c2ccc3c(-c4ccc(N5CCNCC5)cc4)c[nH]c3n2)cc1`: the IC50 in experiment [4] is 4.76 µM; in experiment [1], 0.058 µM; in experiment [5] it was 1.11 µM; in experiment [6] it was 0.111 µM; in experiment [2] it was 0.03 µM; in experiment [7], 0.987 µM. Also, in experiment [3], the IC50 was 0.283 µM.
For `Oc1ccc(-c2ccc3c(-c4ccc(N5CCNCC5)cc4)n[nH]c3n2)cc1`, the IC50 stood at 0.018 µM in experiment [4]; 0.012 µM in experiment [1]; 0.007 µM in experiment [5]; 0.004 µM in experiment [6]; 0.009 µM in experiment [2]; 0.006 µM in experiment [7]. The compound further showed an IC50 in experiment [3] of 0.039 µM.
For the compound `Oc1ccc(-c2ccc3c(-c4ccc(N5CCNCC5)cc4)c[nH]c3c2)cc1`, the IC50 in experiment [4] is over 25 µM; in experiment [1] it was 0.022 µM; in experiment [5], over 25 µM; in experiment [6], over 25 µM; in experiment [2], 0.004 µM; in experiment [3] it was 0.042 µM.
Regarding `c1ccc(-c2ccc3c(-c4ccc(N5CCNCC5)cc4)n[nH]c3n2)cc1`, the IC50 was 7.4 µM in experiment [1], 1.7 µM in experiment [2] and 7.2 µM in experiment [3].
As for `COc1ccc(-c2ccc3c(-c4ccc(N5CCNCC5)cc4)n[nH]c3n2)cc1`, the IC50 in experiment [1] is 12.8 µM; in experiment [2], 4.9 µM; in experiment [3], over 25 µM.
For `c1cc(-c2ccc3c(-c4ccc(N5CCNCC5)cc4)n[nH]c3n2)ccn1` the same measures were 5.8 µM, 2.5 µM and over 25 µM.
With `Nc1ccc(-c2ccc3c(-c4ccc(N5CCNCC5)cc4)n[nH]c3n2)cn1`, the IC50 in experiment [1] is 12 µM; in experiment [2] it was 15 µM; in experiment [3] it was over 25 µM.
With `Nc1cc(-c2ccc3c(-c4ccc(N5CCNCC5)cc4)n[nH]c3n2)ccn1`, the values for the IC50 in experiment [1], in experiment [2] and in experiment [3] were 1.8 µM, 0.17 µM and 20 µM, respectively.
With `NS(=O)(=O)c1ccc(-c2ccc3c(-c4ccc(N5CCNCC5)cc4)n[nH]c3n2)cc1`, the IC50 in experiment [1] is 10 µM; in experiment [2] it was 11 µM; in experiment [3] it was over 25 µM.
For `c1cc(-c2ccc3c(-c4ccc(N5CCNCC5)cc4)n[nH]c3n2)c2cc[nH]c2c1` the same measures were 0.26 µM, 0.11 µM and 0.65 µM.
For `c1cncc(-c2ccc3[nH]cc(-c4ccc(N5CCNCC5)cc4)c3c2)c1` the same measures were 0.49 µM, 0.192 µM and 15 µM.
On the same counts, the results for `c1cc(-c2ccc3[nH]cc(-c4ccc(N5CCNCC5)cc4)c3c2)ccn1` are 5.7 µM, 2.8 µM and over 25 µM.
As to `c1ccc(-c2ccc3[nH]cc(-c4ccc(N5CCNCC5)cc4)c3c2)nc1`, the IC50 in experiment [1] was 14 µM; in experiment [2], 2.1 µM; in experiment [3] it was over 25 µM.
As for `c1cnc(-c2ccc3[nH]cc(-c4ccc(N5CCNCC5)cc4)c3c2)cn1`, the results for the IC50 in experiment [1], in experiment [2] and in experiment [3] were 0.96 µM, 0.53 µM and 13.6 µM, respectively.
As to `Nc1ccc(-c2c[nH]c3ccc(-c4cnccn4)cc23)c(F)n1`, the values for the IC50 in experiment [1], in experiment [2] and in experiment [3] were 0.31 µM, 0.25 µM and 5 µM, respectively.
As to `Nc1ccc(-c2c[nH]c3ccc(-c4cncc(O[C@H]5CC[C@H](N)CC5)n4)cc23)c(F)n1`, the IC50 in experiment [1] is 0.005 µM; in experiment [2] it was under 0.002 µM; in experiment [3], 0.083 µM.
On the same counts, the results for `Nc1ccc(-c2c[nH]c3ccc(-c4cncc(N5CCNCC5)n4)cc23)c(F)n1` are 0.004 µM, under 0.002 µM and 0.061 µM.
For `Nc1ccc(-c2c[nH]c3ccc(-c4cncc(N5CCCC(N)C5)n4)cc23)c(F)n1` (stereo unspecified) the same measures were 0.003 µM, under 0.002 µM and 0.081 µM.
For `C[C@H](N)COc1cncc(-c2ccc3[nH]cc(-c4ccc(N)nc4F)c3c2)n1` the same measures were under 0.002 µM, under 0.002 µM and 0.056 µM.
Take `CC[C@H](N)COc1cncc(-c2ccc3[nH]cc(-c4ccc(N)nc4F)c3c2)n1`: the IC50 in experiment [1] was 0.005 µM; in experiment [2] it was under 0.002 µM; in experiment [3], 0.026 µM.
For `CC(C)[C@H](N)COc1cncc(-c2ccc3[nH]cc(-c4ccc(N)nc4F)c3c2)n1` the same measures were 0.006 µM, under 0.002 µM and 0.072 µM.
Turning to `CC(C)(C)[C@H](N)COc1cncc(-c2ccc3[nH]cc(-c4ccc(N)nc4F)c3c2)n1`, the IC50 in experiment [1] is 0.01 µM; in experiment [2], under 0.002 µM; in experiment [3], 0.122 µM.
On the same counts, the results for `Nc1ccc(-c2c[nH]c3ccc(-c4cncc(OC[C@@H](N)c5ccccc5)n4)cc23)c(F)n1` are under 0.002 µM, under 0.002 µM and 0.01 µM.
Take `Nc1ccc(-c2c[nH]c3ccc(-c4cncc(OC[C@H](N)c5ccccc5)n4)cc23)c(F)n1`: the IC50 in experiment [1] was 0.005 µM; in experiment [2], under 0.002 µM; in experiment [3], 0.02 µM.
